Data reported in the supplement of paper PMC10307832.

Tests used:
Assay in all cases: relative viability (nuclei count vs DMSO), 5 days (fraction); higher = more cells survive
CAP-232 + Tozasertib = compound: C[C@H]([C@@H](C(=O)N)NC(=O)[C@@H]1CSSC[C@@H](C(=O)N[C@H](C(=O)N[C@@H](C(=O)N[C@H](C(=O)N1)CCCCN)CC2=CNC3=CC=CC=C32)CC4=CC=C(C=C4)O)NC(=O)[C@@H](CC5=CC=CC=C5)N)O [CAP-232] + Cc1cc(Nc2cc(N3CCN(C)CC3)nc(Sc3ccc(NC(=O)C4CC4)cc3)n2)n[nH]1 [Tozasertib] (partner 0.1 µM)
How it was run: (§1)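 Lung cancer cell lines in 1536-well plates were dosed by pin tool the day after seeding, either with one drug alone or with a fixed anchor-drug dose plus five library-drug doses (not always all listed) in √10 steps. After 5 days, cells were fixed and their nuclei stained in one step (final 0.05% Triton X-100, 1% formaldehyde, 1 ug/ml Hoechst), then counted on 4× images. Relative viability is the nuclei count in treated wells divided by that in vehicle wells. Values are medians of duplicate plates.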

CAP-232 + Linsitinib = compound: C[C@H]([C@@H](C(=O)N)NC(=O)[C@@H]1CSSC[C@@H](C(=O)N[C@H](C(=O)N[C@@H](C(=O)N[C@H](C(=O)N1)CCCCN)CC2=CNC3=CC=CC=C32)CC4=CC=C(C=C4)O)NC(=O)[C@@H](CC5=CC=CC=C5)N)O [CAP-232] + C[C@]1(O)C[C@@H](c2nc(-c3ccc4ccc(-c5ccccc5)nc4c3)c3c(N)nccn32)C1 [Linsitinib] (partner 1 µM)
How it was run: as §1

CAP-232 + Vorinostat = compound: C[C@H]([C@@H](C(=O)N)NC(=O)[C@@H]1CSSC[C@@H](C(=O)N[C@H](C(=O)N[C@@H](C(=O)N[C@H](C(=O)N1)CCCCN)CC2=CNC3=CC=CC=C32)CC4=CC=C(C=C4)O)NC(=O)[C@@H](CC5=CC=CC=C5)N)O [CAP-232] + O=C(CCCCCCC(=O)Nc1ccccc1)NO [Vorinostat] (partner 1 µM)
How it was run: as §1

CAP-232 + Dasatinib = compound: C[C@H]([C@@H](C(=O)N)NC(=O)[C@@H]1CSSC[C@@H](C(=O)N[C@H](C(=O)N[C@@H](C(=O)N[C@H](C(=O)N1)CCCCN)CC2=CNC3=CC=CC=C32)CC4=CC=C(C=C4)O)NC(=O)[C@@H](CC5=CC=CC=C5)N)O [CAP-232] + Cc1nc(Nc2ncc(C(=O)Nc3c(C)cccc3Cl)s2)cc(N2CCN(CCO)CC2)n1 [Dasatinib] (partner 0.075 µM)
How it was run: as §1

CAP-232 + Olaparib = compound: C[C@H]([C@@H](C(=O)N)NC(=O)[C@@H]1CSSC[C@@H](C(=O)N[C@H](C(=O)N[C@@H](C(=O)N[C@H](C(=O)N1)CCCCN)CC2=CNC3=CC=CC=C32)CC4=CC=C(C=C4)O)NC(=O)[C@@H](CC5=CC=CC=C5)N)O [CAP-232] + O=C(c1cc(Cc2n[nH]c(=O)c3ccccc23)ccc1F)N1CCN(C(=O)C2CC2)CC1 [Olaparib] (partner 8 µM)
How it was run: as §1

UMC-11
relative viability (CAP-232 + Tozasertib; first compound 0.4 µM): 0.202
relative viability (CAP-232 + Tozasertib; first compound 1.265 µM): 0.191
relative viability (CAP-232 + Tozasertib; first compound 4 µM): 0.214
relative viability (CAP-232 + Tozasertib; first compound 12.65 µM): 0.17
relative viability (CAP-232 + Linsitinib; first compound 0.4 µM): 1.13
relative viability (CAP-232 + Linsitinib; first compound 1.265 µM): 1
relative viability (CAP-232 + Linsitinib; first compound 4 µM): 1.14
relative viability (CAP-232 + Linsitinib; first compound 12.65 µM): 1.1
relative viability (CAP-232 + Vorinostat; first compound 0.4 µM): 0.357
relative viability (CAP-232 + Vorinostat; first compound 1.265 µM): 0.413
relative viability (CAP-232 + Vorinostat; first compound 4 µM): 0.344
relative viability (CAP-232 + Vorinostat; first compound 12.65 µM): 0.272
relative viability (CAP-232 + Dasatinib; first compound 0.4 µM): 0.621
relative viability (CAP-232 + Dasatinib; first compound 1.265 µM): 0.494
relative viability (CAP-232 + Dasatinib; first compound 4 µM): 0.587
relative viability (CAP-232 + Dasatinib; first compound 12.65 µM): 0.316
relative viability (CAP-232 + Olaparib; first compound 0.4 µM): 0.358
relative viability (CAP-232 + Olaparib; first compound 1.265 µM): 0.339
relative viability (CAP-232 + Olaparib; first compound 4 µM): 0.374
relative viability (CAP-232 + Olaparib; first compound 12.65 µM): 0.248
